± gives the standard deviation of the averaged measurements.
What was measured:
Experiment in all cases: level (log10 ratio to DMSO vehicle control); higher = higher biomarker level / cell amount than vehicle control
Octafluoroadipamide = compound: NC(=O)C(F)(F)C(F)(F)C(F)(F)C(F)(F)C(N)=O [Octafluoroadipamide]; conditions: in DMSO
Method: (§1)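 BioMAP Diversity Plus panel of 12 human primary cell co-culture systems (3C, 4H, LPS, SAg, BT, BF4T, BE3C, CASM3C, HDF3CGF, KF3CT, MyoF, Mphg). Compounds were added 1 h before stimulation and left for 24 h (MyoF 48 h; BT 72 h for soluble read-outs or 6 d for IgG). Biomarkers were read by ELISA, cytotoxicity by SRB, PBMC viability and proliferation by Alamar Blue. Each well value was divided by the mean of 8 DMSO control wells on the same plate and log10 transformed; duplicate blinded samples were tested at 4 concentrations.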

[1] = compound: FC(F)(F)C(F)(F)C(F)(F)CC1CO1 [1H,1H-Heptafluorobutyl epoxide]; conditions: in DMSO
Method: as §1

Heptafluorobutyl iodide = compound: FC(F)(F)C(F)(F)C(F)(F)CI [Heptafluorobutyl iodide]; conditions: in DMSO
Method: as §1

Nonafluoropentanamide = compound: NC(=O)C(F)(F)C(F)(F)C(F)(F)C(F)(F)F [Nonafluoropentanamide]; conditions: in DMSO
Method: as §1

[2] = compound: COC(=O)C(F)(F)C(F)(F)OC(F)(C(F)(F)F)C(F)(F)OC(F)=C(F)F [Methyl perfluoro(3-(1-ethenyloxypropan-2-yloxy)propanoate)]; conditions: in DMSO
Method: as §1

[3] = compound: C=C(C)C(=O)OCCC(F)(F)C(F)(F)C(F)(F)C(F)(F)C(F)(F)C(F)(F)F [6:2 Fluorotelomer methacrylate]; conditions: in DMSO
Method: as §1

[4] = compound: O=S(=O)(O)CCC(F)(F)C(F)(F)C(F)(F)C(F)(F)C(F)(F)C(F)(F)F [6:2 Fluorotelomer sulfonic acid]; conditions: in DMSO
Method: as §1

[5] = compound: FC(F)(F)C(F)(F)C(F)(F)C(F)(F)C(F)(F)C(F)(F)CC1CO1 [3-(Perfluorohexyl)-1,2-epoxypropane]; conditions: in DMSO
Method: as §1

[6] = compound: O=S(=O)(O)C(F)(F)C(F)(F)C(F)(F)C(F)(F)C(F)(F)C(F)(F)C(F)(F)C(F)(F)C(F)(F)C(F)(F)F [Sodium perfluorodecanesulfonate]; conditions: in DMSO
Method: as §1

[7] = compound: O=S(=O)(F)C(F)(F)C(F)(F)C(F)(F)C(F)(F)C(F)(F)C(F)(F)C(F)(F)C(F)(F)F [Perfluorooctanesulfonyl fluoride]; conditions: in DMSO
Method: as §1

[8] = compound: NC(=O)C(F)(F)C(F)(F)C(F)(F)C(F)F; conditions: in DMSO
Method: as §1

Hexafluoroamylene glycol = compound: OCC(F)(F)C(F)(F)C(F)(F)CO [Hexafluoroamylene glycol]; conditions: in DMSO
Method: as §1

[9] = compound: O=C(O)C=CC(F)(C(F)(F)F)C(F)(F)F [3-(Perfluoroisopropyl)-2-propenoic acid]; conditions: in DMSO
Method: as §1

[10] = compound: NS(=O)(=O)C(F)(F)C(F)(F)C(F)(F)C(F)(F)C(F)(F)C(F)(F)F [Perfluorohexanesulfonamide]; conditions: in DMSO
Method: as §1

[11] = compound: C=CC(=O)OCC(F)(F)C(F)(F)C(F)(F)COC(=O)C=C [1H,1H,5H,5H-Perfluoro-1,5-pentanediol diacrylate]; conditions: 6700 nM; in DMSO
Method: as §1

[12] = compound: FC(F)(F)C(F)(F)C(F)(F)C(F)(F)C(F)(F)C(F)(F)C(F)(F)I [1-Iodopentadecafluoroheptane]; conditions: in DMSO
Method: as §1

[13] = compound: FC(F)(F)C(F)(F)CNCC(F)(F)C(F)(F)F [Bis(1H,1H-perfluoropropyl)amine]; conditions: in DMSO
Method: as §1

[14] = compound: O=C(O)C(F)(F)C(F)(F)C(F)(F)C(F)(F)C(F)(F)C(F)(F)C(F)(F)C(F)(F)C(F)(F)C(F)F [11-H-Perfluoroundecanoic acid]; conditions: in DMSO
Method: as §1

[15] = compound: O=S(=O)(Cl)C(F)(F)C(F)(F)C(F)(F)C(F)(F)C(F)(F)C(F)(F)C(F)(F)C(F)(F)F [Perfluoro-1-octanesulfonyl chloride]; conditions: in DMSO
Method: as §1

Test System: BE3C:CXCL11/I-TAC
- level (log10) (Octafluoroadipamide; 6700 nM): -0.0085 ± 0.0035
- level (log10) (Octafluoroadipamide; 20000 nM): -0.0155 ± 0.00071
- level (log10) (Octafluoroadipamide; 60000 nM): -0.014 ± 0.021
- level (log10) ([1]; 6700 nM): 0.0015 ± 0.00071
- level (log10) ([1]; 20000 nM): 0.0115 ± 0.005
- level (log10) ([1]; 60000 nM): 0.013 ± 0.0014
- level (log10) (Heptafluorobutyl iodide; 6700 nM): 0.005 ± 0.048
- level (log10) (Heptafluorobutyl iodide; 20000 nM): -0.0175 ± 0.005
- level (log10) (Heptafluorobutyl iodide; 60000 nM): 0.0245 ± 0.025
- level (log10) (Nonafluoropentanamide; 6700 nM): 0.012 ± 0.0099
- level (log10) (Nonafluoropentanamide; 20000 nM): 0.01 ± 0.017
- level (log10) (Nonafluoropentanamide; 60000 nM): 0.003 ± 0.027
- level (log10) ([2]; 6700 nM): -0.038 ± 0.024
- level (log10) ([2]; 20000 nM): -0.192 ± 0.025
- level (log10) ([3]; 6700 nM): 0.0125 ± 0.023
- level (log10) ([3]; 20000 nM): 0 ± 0.014
- level (log10) ([3]; 60000 nM): 0.0155 ± 0.028
- level (log10) ([4]; 6700 nM): 0.037 ± 0.028
- level (log10) ([4]; 20000 nM): 0.0585 ± 0.00071
- level (log10) ([4]; 60000 nM): 0.067 ± 0.018
- level (log10) ([5]; 6700 nM): -0.0115 ± 0.011
- level (log10) ([5]; 20000 nM): -0.02 ± 0.011
- level (log10) ([5]; 60000 nM): -0.009 ± 0.014
- level (log10) ([6]; 1500 nM): 0.0095 ± 0.005
- level (log10) ([6]; 4400 nM): 0.0075 ± 0.0064
- level (log10) ([6]; 13000 nM): 0.0185 ± 0.005
- level (log10) ([6]; 40000 nM): -0.0685 ± 0.036
- level (log10) ([7]; 6700 nM): 0.005 ± 0.0014
- level (log10) ([7]; 20000 nM): -0.0005 ± 0.012
- level (log10) ([7]; 60000 nM): -0.006 ± 0.011
- level (log10) ([8]; 6700 nM): 0.005 ± 0.0028
- level (log10) ([8]; 20000 nM): -0.002 ± 0.0042
- level (log10) ([8]; 60000 nM): 0.002 ± 0.0057
- level (log10) (Hexafluoroamylene glycol; 6700 nM): 0.002 ± 0.021
- level (log10) (Hexafluoroamylene glycol; 20000 nM): 0.013 ± 0.045
- level (log10) (Hexafluoroamylene glycol; 60000 nM): 0.035 ± 0.018
- level (log10) ([9]; 6700 nM): -0.0175 ± 0.0078
- level (log10) ([9]; 20000 nM): -0.009 ± 0.0057
- level (log10) ([9]; 60000 nM): 0.005 ± 0.011
- level (log10) ([10]; 6700 nM): 0.0015 ± 0.052
- level (log10) ([10]; 20000 nM): -0.023 ± 0.035
- level (log10) ([10]; 60000 nM): -0.107 ± 0.067
- level (log10) [11]: 0.0085 ± 0.011
- level (log10) ([12]; 6700 nM): 0.0005 ± 0.015
- level (log10) ([12]; 20000 nM): 0.004 ± 0.013
- level (log10) ([13]; 6700 nM): -0.026 ± 0.013
- level (log10) ([13]; 20000 nM): -0.0135 ± 0.016
- level (log10) ([13]; 60000 nM): 0.008 ± 0.016
- level (log10) ([14]; 6700 nM): -0.04 ± 0.0057
- level (log10) ([14]; 20000 nM): -0.826 ± 0.0085
- level (log10) ([15]; 6700 nM): -0.012 ± 0.014
- level (log10) ([15]; 20000 nM): 0.002 ± 0.011
- level (log10) ([15]; 60000 nM): -0.598 ± 0.059

Test System: BE3C:IL-1alpha
- level (log10) (Octafluoroadipamide; 6700 nM): 0.0085 ± 0.012
- level (log10) (Octafluoroadipamide; 20000 nM): -0.0105 ± 0.0064
- level (log10) (Octafluoroadipamide; 60000 nM): 0.0145 ± 0.033
- level (log10) ([1]; 6700 nM): 0.024 ± 0.024
- level (log10) ([1]; 20000 nM): 0.01 ± 0.051
- level (log10) ([1]; 60000 nM): 0.0265 ± 0.066
- level (log10) (Heptafluorobutyl iodide; 6700 nM): 0.0015 ± 0.037
- level (log10) (Heptafluorobutyl iodide; 20000 nM): -0.0225 ± 0.019
- level (log10) (Heptafluorobutyl iodide; 60000 nM): -0.001 ± 0.014
- level (log10) (Nonafluoropentanamide; 6700 nM): -0.002 ± 0.0071
- level (log10) (Nonafluoropentanamide; 20000 nM): 0.002 ± 0.014
- level (log10) (Nonafluoropentanamide; 60000 nM): 0.0105 ± 0.00071
- level (log10) ([2]; 6700 nM): -0.0175 ± 0.005
- level (log10) ([2]; 20000 nM): -0.005 ± 0.011
- level (log10) ([3]; 6700 nM): 0.0025 ± 0.016
- level (log10) ([3]; 20000 nM): -0.0125 ± 0.0035
- level (log10) ([3]; 60000 nM): 0.003
- level (log10) ([4]; 6700 nM): -0.0095 ± 0.021
- level (log10) ([4]; 20000 nM): -0.005 ± 0.0099
- level (log10) ([4]; 60000 nM): -0.0005 ± 0.0078
- level (log10) ([5]; 6700 nM): -0.0215 ± 0.0021
- level (log10) ([5]; 20000 nM): -0.003
- level (log10) ([5]; 60000 nM): 0 ± 0.0014
- level (log10) ([6]; 1500 nM): -0.007 ± 0.0085
- level (log10) ([6]; 4400 nM): 0.007 ± 0.023
- level (log10) ([6]; 13000 nM): -0.0495 ± 0.0078
- level (log10) ([6]; 40000 nM): -0.149 ± 0.0092
- level (log10) ([7]; 6700 nM): 0.004 ± 0.0042
- level (log10) ([7]; 20000 nM): -0.0115 ± 0.013
- level (log10) ([7]; 60000 nM): -0.007 ± 0.016
- level (log10) ([8]; 6700 nM): 0.0235 ± 0.016
- level (log10) ([8]; 20000 nM): -0.008 ± 0.0085
- level (log10) ([8]; 60000 nM): 0.015 ± 0.065
- level (log10) (Hexafluoroamylene glycol; 6700 nM): -0.002 ± 0.0085
- level (log10) (Hexafluoroamylene glycol; 20000 nM): 0.002
- level (log10) (Hexafluoroamylene glycol; 60000 nM): 0.0135 ± 0.0092
- level (log10) ([9]; 6700 nM): -0.001 ± 0.031
- level (log10) ([9]; 20000 nM): -0.0065 ± 0.0064
- level (log10) ([9]; 60000 nM): 0.0025 ± 0.005
- level (log10) ([10]; 6700 nM): -0.0195 ± 0.00071
- level (log10) ([10]; 20000 nM): -0.022 ± 0.013
- level (log10) ([10]; 60000 nM): -0.0885 ± 0.016
- level (log10) [11]: -0.0415 ± 0.03
- level (log10) ([12]; 6700 nM): -0.0175 ± 0.005
- level (log10) ([12]; 20000 nM): -0.0185 ± 0.0021
- level (log10) ([13]; 6700 nM): 0.0045 ± 0.022
- level (log10) ([13]; 20000 nM): 0.0005 ± 0.018
- level (log10) ([13]; 60000 nM): 0.007 ± 0.018
- level (log10) ([14]; 6700 nM): 0.0285 ± 0.016
- level (log10) ([14]; 20000 nM): -0.42 ± 0.011
- level (log10) ([15]; 6700 nM): 0.015 ± 0.0042
- level (log10) ([15]; 20000 nM): 0.0155 ± 0.0092
- level (log10) ([15]; 60000 nM): -0.523 ± 0.1

Source: the supplement of paper PMC10331698
